According to patent US20230085307A1, “PYRIDAZINONE COMPOUND AND HERBICIDE” (NISSAN CHEMICAL CORPORATION, priority 2019, published 2023):

How the values were obtained:
late watergrass = experiment: Test Example 1: herbicidal activity, application before weed generation under submerged conditions (Table 16, symbol A); assay type: in vivo, late watergrass (Echinochloa oryzicola); details: amount of applied herbicide 320 g/ha
In short: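 Emulsion formulation, water-diluted to set dose, was put onto the flooded surface (4 cm depth, alluvial soil) the same day weeds were sown and 2.5-leaf rice transplanted. After 3 weeks at 25-30 °C under glass, each species was rated 0 (≤5% kill) to 5 (≥90% kill).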

oval-leafed pondweed = experiment: Test Example 2: herbicidal activity, application during weed generation under submerged conditions (Table 17, symbol C); assay type: in vivo, oval-leafed pondweed (Monochoria vaginalis); details: AAH 320 g/ha; application during weed generation, submerged conditions
In short: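 Alluvial soil in Wagner pots was flooded to 4 cm depth and sown with the three weeds together; pots were kept in a greenhouse at 25° C. to 30° C. At the one to two leaf stage, an emulsion formulation diluted in water to a set rate went onto the water surface; scored three weeks later.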

Chinese sprangletop = experiment: Test Example 3: herbicidal effect by foliage application, Wagner pot (Table 18, symbol D); assay type: in vivo, chinese sprangletop (Leptochloa chinensis); details: for herbicidal effect on D: Chinese sprangletop: amount of applied herbicide 320 g/ha; for herbicidal effect on Chinese sprangletop (D): 320 g/ha
In short: (§1)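 Plants were sown in alluvial soil held under 0.1–0.5 cm standing water and grown 14 days in a greenhouse at 25–30 °C. An emulsifiable formulation, water-diluted to the set dose, was then sprayed onto the foliage, and effects were scored three weeks later using previously defined criteria.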

rice flat sedge = experiment: Test Example 3: herbicidal effect by foliage application, Wagner pot (Table 18, symbol E); assay type: in vivo, rice flat sedge (Cyperus iria); details: for herbicidal effect on E: rice flat sedge: amount of applied herbicide 320 g/ha; for herbicidal effect on rice flat sedge (E): 320 g/ha
In short: as §1

green foxtail = experiment: Test Example 4: herbicidal effect by soil treatment (Table 19, symbol G); assay type: in vivo, green foxtail (Setaria viridis); details: amount of applied herbicide 320 g/ha
In short: (§2)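 Soil-surface application: an emulsion agent diluted with water to the predetermined dose is sprayed uniformly over seeds lying under roughly 1.5 cm of sterilized diluvial soil. Boxes stay in a greenhouse at 25° C. to 30° C. Three weeks later, each species is graded on previously defined criteria.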

wild oat = experiment: Test Example 4: herbicidal effect by soil treatment (Table 19, symbol I); assay type: in vivo, wild oat (Avena fatua); details: amount of applied herbicide 320 g/ha
In short: as §2

Italian ryegrass [1] = experiment: Test Example 4: herbicidal effect by soil treatment (Table 19, symbol K); assay type: in vivo, Italian ryegrass (Lolium multiflorum); details: amount of applied herbicide 320 g/ha
In short: as §2

windgrass [2] = experiment: Test Example 4: herbicidal effect by soil treatment (Table 19, symbol L); assay type: in vivo, windgrass (Apera spica-venti); details: amount of applied herbicide 320 g/ha
In short: as §2

velvetleaf [3] = experiment: Test Example 4: herbicidal effect by soil treatment (Table 19, symbol M); assay type: in vivo, velvetleaf (Abutilon theophrasti); details: amount of applied herbicide 320 g/ha
In short: as §2

lambsquarters = experiment: Test Example 4: herbicidal effect by soil treatment (Table 19, symbol O); assay type: in vivo, lambsquarters (Chenopodium album); details: amount of applied herbicide 320 g/ha
In short: as §2

persian speedwell = experiment: Test Example 4: herbicidal effect by soil treatment (Table 19, symbol R); assay type: in vivo, Persian speedwell (Veronica persica); details: amount of applied herbicide 320 g/ha
In short: as §2

barnyard grass = experiment: Test Example 5: herbicidal effect by foliage application, plastic box (Table 20, symbol H); assay type: in vivo, barnyard grass (Echinochloa crus-galli); details: for H: barnyard grass, herbicidal effect grade: three weeks after application
In short: (§3)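 Sow seeds spot-wise in sterilized diluvial soil; cover with ~1.5 cm soil. Grow 14 days in greenhouse, 25° C. to 30° C. Spray foliage with emulsion diluted to predetermined amount. Rate effect after 3 weeks.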

Italian ryegrass [4] = experiment: Test Example 5: herbicidal effect by foliage application, plastic box (Table 20, symbol K); assay type: in vivo, Italian ryegrass (Lolium multiflorum); details: for K: Italian ryegrass, herbicidal effect grade: three weeks after application
In short: as §3

windgrass [5] = experiment: Test Example 5: herbicidal effect by foliage application, plastic box (Table 20, symbol L); assay type: in vivo, windgrass (Apera spica-venti); details: for L: windgrass, herbicidal effect grade: three weeks after application
In short: as §3

velvetleaf [6] = experiment: Test Example 5: herbicidal effect by foliage application, plastic box (Table 20, symbol M); assay type: in vivo, velvetleaf (Abutilon theophrasti); details: for M: velvetleaf, herbicidal effect grade: three weeks after application
In short: as §3

chickweed = experiment: Test Example 5: herbicidal effect by foliage application, plastic box (Table 20, symbol P); assay type: in vivo, common chickweed (Stellaria media); details: for P: chickweed, herbicidal effect grade: three weeks after application
In short: as §3

[7] = foliage application, AAH 320 g/ha, evaluated three weeks after application
[8] = 320 g/ha, foliage application after 14-day growth, evaluated three weeks after application

Row | SMILES | Herbicidal effect, A: late watergrass (late watergrass) | herbicidal effect rating, C: oval-leafed pondweed (oval-leafed pondweed) | herbicidal effect on D: Chinese sprangletop (Chinese sprangletop) | herbicidal effect on E: rice flat sedge (rice flat sedge) | G: green foxtail, herbicidal effect grade (green foxtail) | I: wild oat, herbicidal effect grade (wild oat) | K: Italian ryegrass, herbicidal effect grade (Italian ryegrass [1]) | L: windgrass, herbicidal effect grade (windgrass [2]) | M: velvetleaf, herbicidal effect grade (velvetleaf [3]) | O: lambsquarters, herbicidal effect grade (lambsquarters) | R: persian speedwell, herbicidal effect grade (persian speedwell) | H: barnyard grass, herbicidal effect grade (barnyard grass; foliage application, 320 g/ha) | K: Italian ryegrass, herbicidal effect grade (Italian ryegrass [4]; foliage application, 320 g/ha) | L: windgrass, herbicidal effect grade (windgrass [5]; foliage application, 320 g/ha) | M: velvetleaf, herbicidal effect grade (velvetleaf [6]; foliage application, 320 g/ha) | P: chickweed, herbicidal effect grade (chickweed; foliage application, 320 g/ha) | herbicidal effect on Chinese sprangletop (D) (Chinese sprangletop) | herbicidal effect on rice flat sedge (E) (rice flat sedge) | other results
1 | CCOC(=O)Oc1c(C)nn(C)c(=O)c1-c1c(-c2ccccc2OC)sc2cc(F)ccc12 [3-024] | 3 (Herbicidal rate of 40% or more and less than 70%) | 3 (Herbicidal rate of 40% or more and less than 70%) | 3 (Herbicidal rate of 40% or more and less than 70%) | 5 (Herbicidal rate of 90% or more (almost completely withered)) | 3 (Herbicidal rate of 40% or more and less than 70%) | 3 (Herbicidal rate of 40% or more and less than 70%) | 1 (Herbicidal rate of 5% or more and less than 20%) | 3 (Herbicidal rate of 40% or more and less than 70%) | 3 (Herbicidal rate of 40% or more and less than 70%) | 4 (Herbicidal rate of 70% or more and less than 90%) | 0 (Herbicidal rate of 5% or less (almost no effect)) | 5 (Herbicidal rate of 90% or more (almost completely withered)) | 4 (Herbicidal rate of 70% or more and less than 90%) | 5 (Herbicidal rate of 90% or more (almost completely withered)) | 5 (Herbicidal rate of 90% or more (almost completely withered)) | 5 (Herbicidal rate of 90% or more (almost completely withered)) | – | – | –
2 | Cc1nn(C)c(=O)c(-c2c(-c3cnccc3C(F)(F)F)sc3ccc(F)cc23)c1O [2-387] | 3 (Herbicidal rate of 40% or more and less than 70%) | 4 (Herbicidal rate of 70% or more and less than 90%) | 5 (Herbicidal rate of 90% or more (almost completely withered)) | 5 (Herbicidal rate of 90% or more (almost completely withered)) | – | – | – | – | – | – | – | – | – | – | – | – | – | – | herbicidal effect, G: green foxtail (green foxtail): 3 (Herbicidal rate of 40% or more and less than 70%); herbicidal effect, I: wild oat (wild oat): 1 (Herbicidal rate of 5% or more and less than 20%); herbicidal effect, K: Italian ryegrass (Italian ryegrass [1]): 4 (Herbicidal rate of 70% or more and less than 90%); herbicidal effect, L: windgrass (windgrass [2]): 3 (Herbicidal rate of 40% or more and less than 70%); herbicidal effect, M: velvetleaf (velvetleaf [3]): 3 (Herbicidal rate of 40% or more and less than 70%); herbicidal effect, O: lambsquarters (lambsquarters): 4 (Herbicidal rate of 70% or more and less than 90%); herbicidal effect, R: persian speedwell (persian speedwell): 5 (Herbicidal rate of 90% or more (almost completely withered)); H: barnyard grass, herbicidal effect (criteria 0-5) (barnyard grass; [7]): 5 (Herbicidal rate of 90% or more (almost completely withered)); K: Italian ryegrass, herbicidal effect (criteria 0-5) (Italian ryegrass [4]; [7]): 4 (Herbicidal rate of 70% or more and less than 90%); L: windgrass, herbicidal effect (criteria 0-5) (windgrass [5]; [7]): 5 (Herbicidal rate of 90% or more (almost completely withered)); M: velvetleaf, herbicidal effect (criteria 0-5) (velvetleaf [6]; [7]): 5 (Herbicidal rate of 90% or more (almost completely withered)); P: chickweed, herbicidal effect (criteria 0-5) (chickweed; [7]): 5 (Herbicidal rate of 90% or more (almost completely withered))
3 | COc1ccccc1-c1sc2cc(SC)ccc2c1-c1c(O)c(C)nn(C)c1=O [3-163] | 3 (Herbicidal rate of 40% or more and less than 70%) | 0 (Herbicidal rate of 5% or less (almost no effect)) | – | – | – | – | – | – | – | – | – | – | – | – | – | – | 5 (Herbicidal rate of 90% or more (almost completely withered)) | 3 (Herbicidal rate of 40% or more and less than 70%) | Herbicidal effect by soil treatment, G: green foxtail (green foxtail): 3 (Herbicidal rate of 40% or more and less than 70%); Herbicidal effect by soil treatment, I: wild oat (wild oat): 0 (Herbicidal rate of 5% or less (almost no effect)); Herbicidal effect by soil treatment, K: Italian ryegrass (Italian ryegrass [1]): 3 (Herbicidal rate of 40% or more and less than 70%); Herbicidal effect by soil treatment, L: windgrass (windgrass [2]): 3 (Herbicidal rate of 40% or more and less than 70%); Herbicidal effect by soil treatment, M: velvetleaf (velvetleaf [3]): 1 (Herbicidal rate of 5% or more and less than 20%); Herbicidal effect by soil treatment, O: lambsquarters (lambsquarters): 3 (Herbicidal rate of 40% or more and less than 70%); Herbicidal effect by soil treatment, R: persian speedwell (persian speedwell): 3 (Herbicidal rate of 40% or more and less than 70%); herbicidal effect on H: barnyard grass (evaluation grade 0-5) (barnyard grass; [8]): 5 (Herbicidal rate of 90% or more (almost completely withered)); herbicidal effect on K: Italian ryegrass (evaluation grade 0-5) (Italian ryegrass [4]; [8]): 4 (Herbicidal rate of 70% or more and less than 90%); herbicidal effect on L: windgrass (evaluation grade 0-5) (windgrass [5]; [8]): 5 (Herbicidal rate of 90% or more (almost completely withered)); herbicidal effect on M: velvetleaf (evaluation grade 0-5) (velvetleaf [6]; [8]): 5 (Herbicidal rate of 90% or more (almost completely withered)); herbicidal effect on P: chickweed (evaluation grade 0-5) (chickweed; [8]): 5 (Herbicidal rate of 90% or more (almost completely withered))
4 | COc1ccccc1-c1sc2cc(OC(C)C)ccc2c1-c1c(O)c(C)nn(C)c1=O [3-101] | 5 (Herbicidal rate of 90% or more (almost completely withered)) | 2 (Herbicidal rate of 20% or more and less than 40%) | – | – | 5 (Herbicidal rate of 90% or more (almost completely withered)) | 1 (Herbicidal rate of 5% or more and less than 20%) | 5 (Herbicidal rate of 90% or more (almost completely withered)) | 4 (Herbicidal rate of 70% or more and less than 90%) | 3 (Herbicidal rate of 40% or more and less than 70%) | 5 (Herbicidal rate of 90% or more (almost completely withered)) | 4 (Herbicidal rate of 70% or more and less than 90%) | 5 (Herbicidal rate of 90% or more (almost completely withered)) | 5 (Herbicidal rate of 90% or more (almost completely withered)) | 5 (Herbicidal rate of 90% or more (almost completely withered)) | 5 (Herbicidal rate of 90% or more (almost completely withered)) | 5 (Herbicidal rate of 90% or more (almost completely withered)) | 3 (Herbicidal rate of 40% or more and less than 70%) | 5 (Herbicidal rate of 90% or more (almost completely withered)) | –
